The values below come from patent US6699859B1 (dated 2004).

Each structure is given as a SMILES string.

Broadly, the melting point is the temperature of the solid-liquid transition. `Cn1cnc(COc2nn3c(-c4cccs4)nnc3c(Cl)c2N2CCOCC2)n1` had a melting point of 221.9 to 222.8 °C.

With `Cn1ncnc1COc1nn2c(-c3ccccc3)nnc2c(Cl)c1N1CCCC1`, the melting point is 174.5 to 176 °C.
